Measured values published in PubChem BioAssay AID256 (DTP/NCI, 2004).
“And” between values parts separate entries of the source, which are not always exact repeats. Identical values can stand only once. Toxic doses and inconclusive results are not listed. Rule for the calls: active = survival T/C of 150% or more; inactive = T/C below 125% in these data.

System: CD2F1 mice, L1210 leukemia ip, survival T/C
Test: NCI In Vivo Anticancer Drug Screen. Data for tumor model L1210 Leukemia (intraperitoneal) in CD2F1 (CDF1) mice
Conditions: higher = longer survival
Summary of the method: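 Implant tumor; dose compound or vehicle; measure endpoint in both groups; report treated divided by control.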

[1] = endpoint: mean survival time, dose: 50.0 mg/kg/injection, schedule: Q04DX003 (ip), vehicle: saline
[2] = endpoint: mean survival time, dose: 100.0 mg/kg/injection, schedule: Q04DX003 (ip), vehicle: saline with Tween-80
[3] = endpoint: mean survival time, dose: 200.0 mg/kg/injection, schedule: Q04DX003 (ip), vehicle: saline with Tween-80
[4] = endpoint: mean survival time, dose: 400.0 mg/kg/injection, schedule: Q04DX003 (ip), vehicle: saline with Tween-80
[5] = endpoint: mean survival time, dose: 100.0 mg/kg/injection, schedule: Q01DX001 (ip), vehicle: saline with Tween-80
[6] = endpoint: mean survival time, dose: 200.0 mg/kg/injection, schedule: Q01DX001 (ip), vehicle: saline with Tween-80
[7] = endpoint: mean survival time, dose: 400.0 mg/kg/injection, schedule: Q01DX001 (ip), vehicle: saline with Tween-80
[8] = endpoint: mean survival time, dose: 50.0 mg/kg/injection, schedule: Q01DX009 (ip), vehicle: saline with Tween-80
[9] = endpoint: mean survival time, dose: 100.0 mg/kg/injection, schedule: Q01DX009 (ip), vehicle: saline with Tween-80
[10] = endpoint: mean survival time, dose: 200.0 mg/kg/injection, schedule: Q01DX009 (ip), vehicle: saline with Tween-80
[11] = endpoint: mean survival time, dose: 400.0 mg/kg/injection, schedule: Q01DX009 (ip), vehicle: saline with Tween-80
[12] = endpoint: mean survival time, dose: 200.0 mg/kg/injection, schedule: Q01DX009 (ip), vehicle: saline
[13] = endpoint: mean survival time, dose: 400.0 mg/kg/injection, schedule: Q01DX009 (ip), vehicle: saline
[14] = endpoint: mean survival time, dose: 25.0 mg/kg/injection, schedule: Q01DX009 (ip), vehicle: saline with Tween-80

Measured: T/C

c1ccc2c(c1)CC1CCCCN1C2 (configuration not stated)
inactive: endpoint: mean survival time, dose: 12.5 mg/kg/injection, schedule: Q01DX009 (ip), vehicle: Klucel (hydroxypropylcellulose) (HPC) 94 % of control | endpoint: mean survival time, dose: 12.5 mg/kg/injection, schedule: Q04DX003 (ip), vehicle: saline 95 % of control | endpoint: mean survival time, dose: 25.0 mg/kg/injection, schedule: Q01DX009 (ip), vehicle: Klucel (hydroxypropylcellulose) (HPC) 100 % of control | endpoint: mean survival time, dose: 25.0 mg/kg/injection, schedule: Q04DX003 (ip), vehicle: saline 93 % of control | endpoint: mean survival time, dose: 50.0 mg/kg/injection, schedule: Q01DX009 (ip), vehicle: Klucel (hydroxypropylcellulose) (HPC) 97 % of control | [1] 95 % of control

Cc1ccc(S(=O)(=O)CN2CCC(=O)c3ccccc32)cc1
inactive: endpoint: mean survival time, dose: 75.0 mg/kg/injection, schedule: Q04DX003 (ip), vehicle: saline 95 % of control | endpoint: mean survival time, dose: 150.0 mg/kg/injection, schedule: Q04DX003 (ip), vehicle: saline 91 % of control | endpoint: mean survival time, dose: 300.0 mg/kg/injection, schedule: Q04DX003 (ip), vehicle: saline 97 % of control

[NH-]c1ccccc1C(=O)O.[NH-]c1ccccc1C(=O)O.[Ni+2]
inactive: [2] 93 % of control | [3] 107 % of control

Nc1ncnc2nc(-c3ccc(Cc4ccccc4)cc3)[nH]c12
inactive: endpoint: mean survival time, dose: 0.63 mg/kg/injection, schedule: Q01DX009 (ip), vehicle: saline 96 % of control | endpoint: mean survival time, dose: 1.25 mg/kg/injection, schedule: Q01DX009 (ip), vehicle: saline 95 % of control | endpoint: mean survival time, dose: 2.5 mg/kg/injection, schedule: Q01DX009 (ip), vehicle: saline 95 % of control

O=C(C(=C(c1ccccc1)c1ccccc1)N1CCCCC1)c1ccccc1
inactive: endpoint: mean survival time, dose: 100.0 mg/kg/injection, schedule: Q04DX003 (ip), vehicle: Klucel (hydroxypropylcellulose) (HPC) 94 % of control | endpoint: mean survival time, dose: 200.0 mg/kg/injection, schedule: Q04DX003 (ip), vehicle: Klucel (hydroxypropylcellulose) (HPC) 96 % of control | endpoint: mean survival time, dose: 400.0 mg/kg/injection, schedule: Q04DX003 (ip), vehicle: Klucel (hydroxypropylcellulose) (HPC) 94 % of control

C1CCC2(CCC34CCCCC3CCCC4)CCCCC2C1 (configuration not stated)
inactive: [2] 101 % of control | [3] 102 % of control | [4] 102 % of control

Cc1ccc(C)c(N=Nc2ccc(O)cc2)c1
inactive: [2] 104 % of control | [3] 100 % of control | [4] 105 % of control

Cc1ccc(-c2nn[nH]n2)cc1[N+](=O)[O-]
inactive: [5] 109 % of control | [2] 95 % of control | [6] 86 % of control | [3] 97 % of control | [7] 89 % of control | [4] 95 % of control

OC(Cc1ccccn1)c1ccccc1 (configuration not stated)
inactive: [2] 95 % of control | [3] 101 % of control | [4] 98 % of control

CC(CCl)C(C#N)(c1ccccc1)c1ccccc1 (configuration not stated)
inactive: [8] 92 % of control | [9] 95 % of control | [2] 101 % of control | [10] 95 % of control | [3] 101 % of control

O=C/C=C/C=O
inactive: endpoint: mean survival time, dose: 3.13 mg/kg/injection, schedule: Q01DX001 (ip), vehicle: suspension in saline 98 % of control | endpoint: mean survival time, dose: 6.25 mg/kg/injection, schedule: Q01DX001 (ip), vehicle: saline with Tween-80 106 % of control | endpoint: mean survival time, dose: 6.25 mg/kg/injection, schedule: Q01DX001 (ip), vehicle: suspension in saline 104 % of control | endpoint: mean survival time, dose: 12.5 mg/kg/injection, schedule: Q01DX001 (ip), vehicle: saline with Tween-80 122 % of control | endpoint: mean survival time, dose: 12.5 mg/kg/injection, schedule: Q01DX001 (ip), vehicle: suspension in saline 101 % of control | endpoint: mean survival time, dose: 25.0 mg/kg/injection, schedule: Q01DX001 (ip), vehicle: suspension in saline 101 % of control

O=c1nc(NC2CCCCCCCCCCC2)ccn1C1OC(CO)C(O)C1O (configuration not stated)
inactive: endpoint: median survival time, dose: 12.5 mg/kg/injection, schedule: Q01DX005 (ip), vehicle: distilled water + Tween-80 101 % of control | endpoint: median survival time, dose: 25.0 mg/kg/injection, schedule: Q01DX005 (ip), vehicle: distilled water + Tween-80 102 % of control | endpoint: median survival time, dose: 50.0 mg/kg/injection, schedule: Q01DX005 (ip), vehicle: distilled water + Tween-80 105 % of control | endpoint: median survival time, dose: 100.0 mg/kg/injection, schedule: Q01DX005 (ip), vehicle: distilled water + Tween-80 93 % of control | endpoint: median survival time, dose: 200.0 mg/kg/injection, schedule: Q01DX005 (ip), vehicle: distilled water + Tween-80 86 % of control

COc1ccc(NC(=O)Oc2ccccc2-c2ccccc2)cc1
inactive: [9] 98 % of control | [10] 89 % of control | [11] 89 % of control

Oc1ccc(Nc2c3ccccc3nc3c2ccc2ccccc23)cc1CN(CCCl)CCCl
inactive: endpoint: mean survival time, dose: 6.25 mg/kg/injection, schedule: Q01DX009 (ip), vehicle: saline 91 % of control

CCCC(O)C(C)[N+](=O)[O-] (configuration not stated)
inactive: endpoint: mean survival time, dose: 100.0 mg/kg/injection, schedule: Q01DX009 (ip), vehicle: saline 96 % of control | [12] 106 % of control | [13] 96 % of control

C/C(=C\c1ccccc1)CCC(=O)O
inactive: [1] 100 % of control | endpoint: mean survival time, dose: 100.0 mg/kg/injection, schedule: Q04DX003 (ip), vehicle: saline 103 % of control | endpoint: mean survival time, dose: 200.0 mg/kg/injection, schedule: Q04DX003 (ip), vehicle: saline 97 % of control

CCCCCCCCCCCCOC(=O)C[n+]1cccc(C(=O)Nc2ccc(Cl)cc2)c1
inactive: [14] 101 % of control | [8] 96 % of control | [2] 103 % of control

Nc1nc(N)c2c(ccc3c2ccn3Cc2cccc([N+](=O)[O-])c2)n1
inactive: endpoint: median survival time, dose: 0.75 mg/kg/injection, schedule: Q01DX009 (ip), vehicle: saline with Tween-80 104 % of control | endpoint: median survival time, dose: 1.5 mg/kg/injection, schedule: Q01DX009 (ip), vehicle: saline with Tween-80 111 % of control | endpoint: median survival time, dose: 1.56 mg/kg/injection, schedule: Q01DX009 (ip), vehicle: saline with Tween-80 110 % of control | endpoint: median survival time, dose: 3.0 mg/kg/injection, schedule: Q01DX009 (ip), vehicle: saline with Tween-80 117 % of control | endpoint: median survival time, dose: 3.12 mg/kg/injection, schedule: Q01DX009 (ip), vehicle: saline with Tween-80 118 % of control | endpoint: median survival time, dose: 12.5 mg/kg/injection, schedule: Q01DX009 (ip), vehicle: saline with Tween-80 90 % of control and 98 % of control | endpoint: median survival time, dose: 25.0 mg/kg/injection, schedule: Q01DX009 (ip), vehicle: saline with Tween-80 102 % of control and 103 % of control

FC1(F)C2Cc3ccccc3C2C1(Cl)Cl (configuration not stated)
inactive: endpoint: mean survival time, dose: 75.0 mg/kg/injection, schedule: Q01DX001 (ip), vehicle: saline 103 % of control | endpoint: mean survival time, dose: 150.0 mg/kg/injection, schedule: Q01DX001 (ip), vehicle: saline 101 % of control | endpoint: mean survival time, dose: 300.0 mg/kg/injection, schedule: Q01DX001 (ip), vehicle: saline 100 % of control

O=C1OC2(c3cc(I)c(O)c(I)c3Oc3c2cc(I)c(O)c3I)c2c(Cl)ccc(Cl)c21
inactive: [5] 103 % of control | [6] 87 % of control | [7] 100 % of control

CCCC(=O)c1cc(O)c(O)cc1O
inactive: endpoint: mean survival time, dose: 12.5 mg/kg/injection, schedule: Q01DX009 (ip), vehicle: saline with Tween-80 111 % of control | [14] 93 % of control | [8] 97 % of control

O=C(N/N=C/c1cccc([N+](=O)[O-])c1)c1ccc(Cl)cc1Cl
inactive: [9] 100 % of control | [10] 97 % of control | [11] 100 % of control

NC(CC(=O)O)C(=O)O (configuration not stated)
inactive: [12] 97 % of control | [13] 95 % of control | endpoint: mean survival time, dose: 800.0 mg/kg/injection, schedule: Q01DX009 (ip), vehicle: saline 98 % of control

COc1ccc(COc2ccc([N+](=O)[O-])cc2)cc1OC
inactive: endpoint: mean survival time, dose: 75.0 mg/kg/injection, schedule: Q04DX002 (ip), vehicle: saline with Tween-80 87 % of control | endpoint: mean survival time, dose: 150.0 mg/kg/injection, schedule: Q04DX002 (ip), vehicle: saline with Tween-80 102 % of control

CC(=O)NNC(=O)c1ccccc1N=NN(C)C
inactive: endpoint: mean survival time, dose: 18.75 mg/kg/injection, schedule: Q01DX009 (ip), vehicle: Klucel (hydroxypropylcellulose) (HPC) 94 % of control and 100 % of control | endpoint: mean survival time, dose: 37.5 mg/kg/injection, schedule: Q01DX009 (ip), vehicle: Klucel (hydroxypropylcellulose) (HPC) 102 % of control and 111 % of control | endpoint: mean survival time, dose: 75.0 mg/kg/injection, schedule: Q01DX009 (ip), vehicle: Klucel (hydroxypropylcellulose) (HPC) 109 % of control | endpoint: mean survival time, dose: 150.0 mg/kg/injection, schedule: Q01DX009 (ip), vehicle: Klucel (hydroxypropylcellulose) (HPC) 105 % of control and 111 % of control

CC(C/C=N/N1CCCCC1)Nc1ccnc2cc(Cl)ccc12 (configuration not stated)
inactive: endpoint: mean survival time, dose: 0.78 mg/kg/injection, schedule: Q01DX009 (ip), vehicle: saline with Tween-80 95 % of control | endpoint: mean survival time, dose: 1.56 mg/kg/injection, schedule: Q01DX009 (ip), vehicle: saline with Tween-80 101 % of control | endpoint: mean survival time, dose: 3.13 mg/kg/injection, schedule: Q01DX009 (ip), vehicle: saline with Tween-80 102 % of control
